Results published in ChEMBL document CHEMBL1134890, “Preparation of oxime dual NK(1)/NK(2) antagonists with reduced NK(3) affinity” (Bioorg Med Chem Lett, 2002).

Assays:
Format in all cases: cell-based
[1] = target: T1, Neuromedin-K receptor (Homo sapiens, UniProt P29371); test: Binding affinity against recombinant human tachykinin receptor 3 in CHO cells using [125I][MePhe]-NKB as radioligand
T1 sequence (P29371 whole entry): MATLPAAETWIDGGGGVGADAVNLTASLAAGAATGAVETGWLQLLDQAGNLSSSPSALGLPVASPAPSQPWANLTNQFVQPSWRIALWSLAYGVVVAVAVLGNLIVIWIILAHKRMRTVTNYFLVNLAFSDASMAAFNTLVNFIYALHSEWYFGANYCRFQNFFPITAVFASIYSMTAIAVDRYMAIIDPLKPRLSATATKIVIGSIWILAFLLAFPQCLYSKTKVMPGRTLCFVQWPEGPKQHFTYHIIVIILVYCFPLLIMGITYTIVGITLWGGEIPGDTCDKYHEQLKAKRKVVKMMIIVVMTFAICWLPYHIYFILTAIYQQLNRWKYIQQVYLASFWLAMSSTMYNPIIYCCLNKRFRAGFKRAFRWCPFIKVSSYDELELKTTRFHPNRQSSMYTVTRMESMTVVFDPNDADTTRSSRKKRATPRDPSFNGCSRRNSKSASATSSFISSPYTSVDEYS

[2] = target: Substance-P receptor (Homo sapiens, UniProt P25103); test: Binding affinity against recombinant human tachykinin receptor 1 in CHO cells using [3H]-Sar SP as radioligand
Substance-P receptor, sequence (P25103 whole entry): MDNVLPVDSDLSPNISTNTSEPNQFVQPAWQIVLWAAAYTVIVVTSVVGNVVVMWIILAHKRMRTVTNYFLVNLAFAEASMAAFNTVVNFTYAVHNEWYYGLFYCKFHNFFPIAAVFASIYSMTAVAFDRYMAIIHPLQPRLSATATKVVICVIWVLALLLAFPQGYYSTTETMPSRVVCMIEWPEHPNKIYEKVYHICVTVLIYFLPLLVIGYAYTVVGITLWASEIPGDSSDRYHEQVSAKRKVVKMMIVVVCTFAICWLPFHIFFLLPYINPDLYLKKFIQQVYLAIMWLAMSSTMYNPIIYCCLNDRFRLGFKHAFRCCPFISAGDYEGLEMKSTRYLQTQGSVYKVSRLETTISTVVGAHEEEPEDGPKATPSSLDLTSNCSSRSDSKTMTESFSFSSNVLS

[3] = target: T2, Substance-K receptor (Homo sapiens, UniProt P21452); test: Binding affinity against recombinant human tachykinin receptor 2 in CHO cells using [3H]-NKA as radioligand
T2 sequence (P21452 whole entry): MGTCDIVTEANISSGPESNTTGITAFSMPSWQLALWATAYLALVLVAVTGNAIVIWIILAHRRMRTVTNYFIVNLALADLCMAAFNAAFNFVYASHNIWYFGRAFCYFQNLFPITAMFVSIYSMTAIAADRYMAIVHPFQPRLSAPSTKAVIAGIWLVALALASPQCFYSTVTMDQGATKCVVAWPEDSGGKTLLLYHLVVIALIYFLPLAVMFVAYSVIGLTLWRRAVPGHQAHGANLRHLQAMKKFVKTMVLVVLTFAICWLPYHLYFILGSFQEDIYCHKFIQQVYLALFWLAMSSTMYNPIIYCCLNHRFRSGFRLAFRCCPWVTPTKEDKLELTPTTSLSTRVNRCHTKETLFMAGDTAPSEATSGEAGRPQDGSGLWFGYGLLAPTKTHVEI

CO/N=C(\CN(C)C(=O)c1cc(Cl)cc(Cl)c1)[C@H](CCN1CCC(n2c(=O)n(C)c3ccccc32)CC1)c1ccc(Cl)c(Cl)c1
Ki [1]: 20 nM

CO/N=C(\CN(C)C(=O)c1cc(Cl)cc(Cl)c1)[C@H](CCN1CCC(N2CCCN(C(C)(C)C(N)=O)C2=O)CC1)c1ccc(Cl)c(Cl)c1
Ki [2]: 0.8 nM
Ki [1]: 0.3 nM
Ki [3]: 0.4 nM

CO/N=C(\CN(C)C(=O)c1cc(Cl)cc(Cl)c1)[C@H](CCN1CCC(N2CCCN(c3ccccn3)C2=O)CC1)c1ccc(Cl)c(Cl)c1
Ki [2]: 1.9 nM
Ki [1]: 0.5 nM
Ki [3]: 0.5 nM

CO/N=C(\CN(C)C(=O)c1cc(Cl)cc(Cl)c1)[C@H](CCN1CCC(N2CCCN(Cc3nnn[nH]3)C2=O)CC1)c1ccc(Cl)c(Cl)c1
Ki [1]: 2 nM

CO/N=C(\CN(C)C(=O)c1cc(Cl)cc(Cl)c1)[C@H](CCN1CCC(N2CCCN(Cc3ccoc3)C2=O)CC1)c1ccc(Cl)c(Cl)c1
Ki [2]: 1.1 nM
Ki [1]: 2.2 nM
Ki [3]: 1.1 nM

CO/N=C(\CN(C)C(=O)c1cc(Cl)cc(Cl)c1)[C@H](CCN1CCC(N2CCCN(CC(=O)OCc3ccccc3)C2=O)CC1)c1ccc(Cl)c(Cl)c1
Ki [2]: 1 nM
Ki [1]: 11.8 nM
Ki [3]: 1.2 nM

CCN(C/C(=N\OC)[C@H](CCN1CCC(n2c(=O)n(CC(=O)NCCOC)c3ccccc32)CC1)c1ccc(Cl)c(Cl)c1)C(=O)c1cc(Cl)cc(Cl)c1
Ki [2]: 1.9 nM
Ki [1]: 945 nM
Ki [3]: 4.1 nM

CO/N=C(\CN(C)C(=O)c1cc(Cl)cc(Cl)c1)[C@H](CCN1CCC(N2CCCN(O)C2=O)CC1)c1ccc(Cl)c(Cl)c1
Ki [2]: 1 nM
Ki [1]: 0.7 nM
Ki [3]: 0.7 nM

CO/N=C(\CN(C)C(=O)c1cc(Cl)cc(Cl)c1)[C@H](CCN1CCC(n2c(=O)n(CC(=O)OC)c3ccccc32)CC1)c1ccc(Cl)c(Cl)c1
Ki [2]: 1.3 nM
Ki [1]: 29 nM
Ki [3]: 1.8 nM

CO/N=C(\CN(C)C(=O)c1cc(Cl)cc(Cl)c1)[C@H](CCN1CCC(N2CCCN(N3CCOCC3)C2=O)CC1)c1ccc(Cl)c(Cl)c1
Ki [2]: 0.8 nM
Ki [1]: 0.5 nM
Ki [3]: 0.9 nM

CO/N=C(\CN(C)C(=O)c1cc(Cl)cc(Cl)c1)[C@H](CCN1CCC(n2c(=O)[nH]c3ccccc32)CC1)c1ccc(Cl)c(Cl)c1
Ki [1]: 10 nM

CCN(C/C(=N\OC)[C@H](CCN1CCC(n2c(=O)n(CC(N)=O)c3ccccc32)CC1)c1ccc(Cl)c(Cl)c1)C(=O)c1cc(Cl)cc(Cl)c1
Ki [2]: 2.4 nM
Ki [1]: 167 nM
Ki [3]: 4.8 nM

CCN(C/C(=N\OC)[C@H](CCN1CCC(n2c(=O)n(CC(=O)O)c3ccccc32)CC1)c1ccc(Cl)c(Cl)c1)C(=O)c1cc(Cl)cc(Cl)c1
Ki [2]: 2.4 nM
Ki [1]: 176 nM
Ki [3]: 5.2 nM

CCNC(=O)Cn1c(=O)n(C2CCN(CC[C@@H](/C(CN(CC)C(=O)c3cc(Cl)cc(Cl)c3)=N/OC)c3ccc(Cl)c(Cl)c3)CC2)c2ccccc21
Ki [2]: 3 nM
Ki [1]: 281 nM
Ki [3]: 3.6 nM

CCN(C/C(=N\OC)[C@H](CCN1CCC(n2c(=O)[nH]c3ccccc32)CC1)c1ccc(Cl)c(Cl)c1)C(=O)c1cc(Cl)cc(Cl)c1
Ki [2]: 2.5 nM
Ki [1]: 97 nM
Ki [3]: 2.6 nM

CO/N=C(\CN(C)C(=O)c1cc(Cl)cc(Cl)c1)[C@H](CCN1CCC(N2CCCN(C(C)C)C2=O)CC1)c1ccc(Cl)c(Cl)c1
Ki [2]: 0.9 nM
Ki [1]: 0.6 nM
Ki [3]: 0.8 nM

CO/N=C(\CN(C)C(=O)c1cc(Cl)cc(Cl)c1)[C@H](CCN1CCC(N2CCCN(CCNS(C)(=O)=O)C2=O)CC1)c1ccc(Cl)c(Cl)c1
Ki [2]: 0.6 nM
Ki [1]: 0.4 nM
Ki [3]: 0.5 nM
